Here are results for one compound from article PMC4931252 (Nature Communications, 2016).

For the assay, the target named is T1, prion protein PrP (PrP^C, SHaPrP) (Mesocricetus auratus, UniProt P04273).
T1 construct: gene PRNP
The format is binding.

T1 sequence (P04273 90-231 limits assumed): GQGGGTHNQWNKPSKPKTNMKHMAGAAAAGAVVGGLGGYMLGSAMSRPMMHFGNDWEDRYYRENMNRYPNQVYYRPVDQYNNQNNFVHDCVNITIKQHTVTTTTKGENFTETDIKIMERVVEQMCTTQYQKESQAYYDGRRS

Take `C[n+]1ccc(-c2c3nc(c(-c4cc[n+](C)cc4)c4ccc([nH]4)c(-c4cc[n+](C)cc4)c4nc(c(-c5cc[n+](C)cc5)c5ccc2[nH]5)C=C4)C=C3)cc1.[Fe+3]` [Fe-TMPyP, iron(III) meso-tetra (N-methyl-4-pyridyl-porphine)]: the Kd (as a rule, a measure of binding affinity in units of concentration) stood at 9 ± 3 µM.
